Data set [1] has as its system Mycobacterium tuberculosis. The data set can be described thus: Antimycobacterial activity against Mycobacterium tuberculosis H37Rv ATCC 27294 assessed as inhibition of bacterial growth incubated for 7 days by MABA assay. It is filed as functional. As to conditions: H37Rv ATCC 27294, 168 h, time 7 day. (The colour change of resazurin is a common sign of viable cells or microbes.)

The nature of data set [2]: Cytotoxicity against African green monkey Vero cells. It is filed as cell-based. As to conditions: chlorocebus sabaeus.
Data set [3] in a line: Acute toxicity in BALB/c mouse assessed as mouse survival at 2 g/kg, po observed continuously for 4 hrs and each hr for next 24 hrs and at 8 hrs interval for following 7 days. It is filed as organism-based. As to conditions: in vivo, 2000 mg/kg, 168 h, time 7 day.
The subject of data set [4] is Mycobacterium tuberculosis. The data set can be described thus: Antimycobacterial activity against Mycobacterium tuberculosis H37Rv infected in BALB/c mouse assessed as reduction in colony forming unit in lung at 25 mg/kg, po administered once daily for 5 days a week for 3 weeks (reference value: 5.35 +/- 0.17 log10CFU). It is filed as functional.
The nature of data set [5]: Half life in BALB/c mouse at 2.5 mg/kg, iv measured upto 24 hrs by HPLC analysis. It is filed as ADME, organism-based. The note with it: in vivo.
Data set [6] in a line: Half life in BALB/c mouse at 12.5 mg/kg, po measured upto 24 hrs by HPLC analysis. It is filed as ADME, organism-based. As to conditions: in vivo.
Data set [7] can be described thus: Tmax in BALB/c mouse at 12.5 mg/kg, po measured upto 24 hrs by HPLC analysis. It is filed as ADME, organism-based. The note with it: in vivo.
A short description of data set [8]: Cmax in BALB/c mouse at 2.5 mg/kg, iv measured upto 24 hrs by HPLC analysis. It is filed as ADME, organism-based. Set-up: route intravenous, dose 2.5 mg/kg, time <=24. The note with it: in vivo.
Data set [9] in a line: Cmax in BALB/c mouse at 12.5 mg/kg, po measured upto 24 hrs by HPLC analysis. The arrangement: route oral, dose 12.5 mg/kg, time <=24. The note with it: in vivo. It is filed as ADME, organism-based.
Data set [10] is described as follows: AUC (0 to infinity) in BALB/c mouse at 2.5 mg/kg, iv measured upto 24 hrs by HPLC analysis. It is filed as ADME, organism-based. Set-up: route intravenous, dose 2.5 mg/kg, time <=24. As to conditions: in vivo.
The nature of data set [11]: AUC (0 to infinity) in BALB/c mouse at 12.5 mg/kg, po measured upto 24 hrs by HPLC analysis. It is filed as ADME, organism-based. The arrangement: route oral, dose 12.5 mg/kg, time <=24. The note with it: in vivo.
A short description of data set [12]: Oral bioavailability in BALB/c mouse at 12.5 mg/kg measured upto 24 hrs by HPLC analysis. As to conditions: in vivo; for bioavailability: BALB/c. It is filed as ADME, organism-based.

Consider 23 compounds from ChEMBL document CHEMBL4680263, “Identification of benzothiazinones containing 2-benzyl-2,7-diazaspiro[3.5]nonane moieties as new antitubercular agents” (Eur J Med Chem, 2020).

Structures are written as SMILES. Converted amounts (≈) assume the structure as drawn.

For the compound `CC(c1ccc(Cl)c(F)c1)N1CC2(CCN(c3nc(=O)c4cc(C(F)(F)F)cc([N+](=O)[O-])c4s3)CC2)C1` (centres undefined), the MIC – broadly, the smallest concentration in the dilution series that meets the test's criterion for growth inhibition – in [1] is under 0.016 mg/L. Moreover, in data set [2], the CC50 (as a rule, the concentration at which the toxic effect on the cells reaches its halfway point) was over 64 mg/L. The values for the Activity entry in data set [3] and in data set [4] were “Non-Toxic” and over 5 log10CFU, respectively. In addition, the half-life (as a rule, the time in which the quantity being followed falls by half) in data set [5] is 7.5 h; in data set [6] it was 10.1 h. Also, the Tmax (in general, the time from dosing to the highest level) in data set [7] stood at 0.5 h. The Cmax (in general, the peak of the concentration-time curve) in data set [8] is 0.709 µg/mL; in data set [9], 0.313 µg/mL. Moreover, the AUC(0-inf) – broadly, the area under the concentration-time curve extrapolated to infinity – in data set [10] was found to be 1.17 µg·h/mL; in data set [11], 1.94 µg·h/mL. Moreover, in data set [12], the bioavailability (as a rule, dose-corrected exposure relative to a reference, in per cent) came out at 33%.
`CO[C@H]1/C=C/O[C@@]2(C)Oc3c(C)c(O)c4c(O)c(c(/C=N/N5CCN(C)CC5)c(O)c4c3C2=O)NC(=O)/C(C)=C\C=C\[C@H](C)[C@H](O)[C@@H](C)[C@@H](O)[C@@H](C)[C@H](OC(C)=O)[C@@H]1C` [RIFAMPIN]: in data set [1], the MIC was 0.037 mg/L (≈ 0.045 µM).
Take `CC(c1cc(F)c(F)c(F)c1)N1CC2(CCN(c3nc(=O)c4cc(C(F)(F)F)cc([N+](=O)[O-])c4s3)CC2)C1` (centres undefined): the minimum inhibitory concentration (MIC) in [1] was under 0.016 mg/L. The CC50 in data set [2] is over 64 mg/L. Moreover, the Activity result in data set [3] is listed as “Non-Toxic”; in data set [4], over 5 log10CFU. Further, the values for the half-life in [5] and in data set [6] were 1.86 h and 2.08 h, respectively. Also, in [7], the Tmax is 0.25 h. In addition, the Cmax in data set [8] was found to be 0.463 µg/mL; in [9], 0.24 µg/mL. The AUC(0-inf) is 0.498 µg·h/mL in data set [10] and 0.455 µg·h/mL in [11]. This compound gave a bioavailability in [12] of 18.3%.
Regarding `CC(c1cc(F)cc(F)c1)N1CC2(CCN(c3nc(=O)c4cc(C(F)(F)F)cc([N+](=O)[O-])c4s3)CC2)C1` (centres undefined), the MIC in data set [1] is under 0.016 mg/L. In addition, the cytotoxic concentration (CC50) in [2] is over 64 mg/L. The Activity result in data set [3] was “Non-Toxic”; in [4], over 5 log10CFU. Further, the values for the half-life in data set [5] and in data set [6] were 3.25 h and 3.02 h, respectively. In [7], the Tmax is 0.25 h. The figures for the Cmax in data set [8] and in data set [9] were 0.723 µg/mL and 0.286 µg/mL, respectively. The AUC(0-inf) worked out at 0.812 µg·h/mL in data set [10] and 0.609 µg·h/mL in data set [11]. The bioavailability in data set [12] came to 15%.
Consider `O=c1nc(N2CCC3(CC2)CN(C(c2ccc(F)cc2)c2ccc(F)cc2)C3)sc2c([N+](=O)[O-])cc(C(F)(F)F)cc12`, for which the MIC in data set [1] turned out to be 0.037 mg/L (≈ 0.0614 µM).
Take `CC(c1ccc(OC(F)(F)F)cc1)N1CCC2(CC1)CN(c1nc(=O)c3cc(C(F)(F)F)cc([N+](=O)[O-])c3s1)C2` (centres undefined): in [1], the MIC is under 0.016 mg/L. The compound also displayed a half-maximal cytotoxic concentration (CC50) in data set [2] of over 64 mg/L. Besides, the Activity entry in data set [3] is “Non-Toxic”; in data set [4], 4.05 log10CFU.
Take `CC(c1ccc(F)c(Cl)c1)N1CC2(CCN(c3nc(=O)c4cc(C(F)(F)F)cc([N+](=O)[O-])c4s3)CC2)C1` (centres undefined): the MIC in [1] is under 0.016 mg/L.
As to `CC(c1ccc(F)c(F)c1)N1CC2(CCN(c3nc(=O)c4cc(C(F)(F)F)cc([N+](=O)[O-])c4s3)CC2)C1` (centres undefined), in [1], the MIC is under 0.016 mg/L.
On to `CC(c1ccc(C(F)(F)F)cc1)N1CC2(CCN(c3nc(=O)c4cc(C(F)(F)F)cc([N+](=O)[O-])c4s3)CC2)C1` (centres undefined), for which the minimum inhibitory concentration (MIC) in data set [1] was under 0.016 mg/L. This compound also returned a CC50 in [2] of over 64 mg/L. Moreover, the figures for the Activity entry in data set [3] and in data set [4] were “Non-Toxic” and over 5 log10CFU, respectively. For the same compound, the half-life is 9.29 h in [5] and 6.69 h in data set [6]. The Tmax in [7] was 0.25 h. Further, the Cmax came to 1.39 µg/mL in [8] and 1.24 µg/mL in [9]. Further, the AUC(0-inf) amounted to 2.65 µg·h/mL in data set [10] and 5.5 µg·h/mL in data set [11]. The compound further had a bioavailability in data set [12] of 41.5%.
`O=c1nc(N2CCC3(CC2)CN(Cc2ccc(Br)cc2)C3)sc2c([N+](=O)[O-])cc(C(F)(F)F)cc12`: the MIC in data set [1] was under 0.016 mg/L.
For the compound `NNC(=O)c1ccncc1` [ISONIAZID], the MIC in [1] was found to be 0.038 mg/L (≈ 0.277 µM). Also, the Activity in [4] was over 5 log10CFU.
`O=c1nc(N2CCN(CC3CCCCC3)CC2)sc2c([N+](=O)[O-])cc(C(F)(F)F)cc12` [MACOZINONE]: the MIC in [1] is under 0.016 mg/L. This compound also gave a CC50 in data set [2] of over 64 mg/L. The Activity in [4] was over 5 log10CFU. Further, the values for the half-life in data set [5] and in [6] were 5.14 h and 5.07 h, respectively. The Tmax in [7] is 0.25 h. The Cmax in data set [8] stood at 1.84 µg/mL; in [9] it was 0.734 µg/mL. Moreover, the AUC(0-inf) in [10] is 1.54 µg·h/mL; in data set [11], 0.912 µg·h/mL. Further, the F in data set [12] (12.5 mg/kg, 24 h) was 11.8%.
On to `O=c1nc(N2CCC3(CC2)CN(Cc2cc(F)cc(F)c2)C3)sc2c([N+](=O)[O-])cc(C(F)(F)F)cc12`, for which the MIC in data set [1] was under 0.016 mg/L.
For `CC(c1ccc(OC(F)(F)F)cc1)N1CC2(CCN(c3nc(=O)c4cc(C(F)(F)F)cc([N+](=O)[O-])c4s3)CC2)C1` (centres undefined), the MIC in data set [1] was under 0.016 mg/L. Moreover, the cytotoxic concentration (CC50) in [2] is over 64 mg/L. In addition, the Activity entry in [3] is given as “Non-Toxic”; in data set [4], over 5 log10CFU. In addition, the half-life is 8.51 h in data set [5] and 6 h in [6]. Moreover, in [7], the Tmax is 0.25 h. Further, the values for the maximum concentration (Cmax) in data set [8] and in data set [9] were 1.64 µg/mL and 0.915 µg/mL, respectively. Moreover, the AUC(0-inf) in [10] came out at 2.99 µg·h/mL; in data set [11], 3.62 µg·h/mL. The compound also came in with a bioavailability in [12] of 24.2%.
In the case of `CC(c1ccc(F)cc1)N1CC2(CCN(c3nc(=O)c4cc(C(F)(F)F)cc([N+](=O)[O-])c4s3)CC2)C1` (centres undefined), the MIC in data set [1] is under 0.016 mg/L.
Same read-out and setting: next, `CC(c1cccc(F)c1)N1CC2(CCN(c3nc(=O)c4cc(C(F)(F)F)cc([N+](=O)[O-])c4s3)CC2)C1` (centres undefined): under 0.016 mg/L.
Regarding `O=c1nc(N2CCC3(CC2)CN(Cc2ccc(C(F)(F)F)cc2)C3)sc2c([N+](=O)[O-])cc(C(F)(F)F)cc12`, the MIC in data set [1] is under 0.016 mg/L. The compound also returned a CC50 in data set [2] of over 64 mg/L. In data set [3], the Activity result is given as “Toxic”.
`CC(c1ccc(F)cc1F)N1CC2(CCN(c3nc(=O)c4cc(C(F)(F)F)cc([N+](=O)[O-])c4s3)CC2)C1` (centres undefined): the MIC in data set [1] is under 0.016 mg/L.
As to `O=c1nc(N2CCC3(CC2)CN(Cc2cccc(F)c2)C3)sc2c([N+](=O)[O-])cc(C(F)(F)F)cc12`, in data set [1], the MIC was under 0.016 mg/L.
As for `CC(c1ccc(Br)cc1)N1CC2(CCN(c3nc(=O)c4cc(C(F)(F)F)cc([N+](=O)[O-])c4s3)CC2)C1` (centres undefined), the MIC in data set [1] is under 0.016 mg/L.
In the case of `CC(c1ccc(Cl)cc1)N1CC2(CCN(c3nc(=O)c4cc(C(F)(F)F)cc([N+](=O)[O-])c4s3)CC2)C1` (centres undefined), the MIC in data set [1] was under 0.016 mg/L.
With `O=c1nc(N2CCC3(CC2)CN(Cc2ccc(OC(F)(F)F)cc2)C3)sc2c([N+](=O)[O-])cc(C(F)(F)F)cc12`, the MIC in data set [1] was under 0.016 mg/L.
On to `O=c1nc(N2CCC3(CC2)CN(Cc2ccc(F)cc2)C3)sc2c([N+](=O)[O-])cc(C(F)(F)F)cc12`, for which the MIC in [1] was under 0.016 mg/L.
